This assay has as its target T1, P2X purinoceptor 3 (Homo sapiens, UniProt P56373).
T1 sequence (P56373 whole entry): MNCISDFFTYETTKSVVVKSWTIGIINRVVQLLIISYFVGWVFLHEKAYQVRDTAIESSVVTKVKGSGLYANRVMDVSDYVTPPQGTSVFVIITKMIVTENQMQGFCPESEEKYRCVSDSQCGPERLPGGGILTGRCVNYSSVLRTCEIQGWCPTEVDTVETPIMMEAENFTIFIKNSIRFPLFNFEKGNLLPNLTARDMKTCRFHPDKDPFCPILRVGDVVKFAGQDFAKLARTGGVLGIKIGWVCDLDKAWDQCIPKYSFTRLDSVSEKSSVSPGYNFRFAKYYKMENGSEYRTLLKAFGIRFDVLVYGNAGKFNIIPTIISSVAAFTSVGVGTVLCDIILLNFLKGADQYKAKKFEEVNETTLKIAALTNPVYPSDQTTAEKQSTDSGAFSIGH
The assay can be described thus: Evaluation of In Vitro Biological Activity. The procedure:
Each well was added with 10 μL of test compound (which was dissolved in DMSO at a concentration of 10 mM and serially diluted with buffer) or vehicle, and then was left to equilibrate for 30 min at room temperature.

IC50 data for 19 molecules are collected here from BindingDB's records for patent US20240034729 (Wuhan Ll Science and Technology Development, 2024).

Usually IC50 stands for the point on the concentration scale where inhibition reaches its midpoint. Read a low IC50 as greater potency.

Bounds are passed on as bounds.

The molecule `COC(=O)N1CCO[C@@H](Cc2c(-c3c(F)cc(C#N)cc3F)nc3cc(C)ccn23)C1` [US20240034729, Compound 6] registered an IC50 below 1000 nM. `COC(=O)N1CCO[C@@H](Cc2c(-c3c(F)cc(CC(N)=O)cc3F)nc3cc(C)ccn23)C1` [US20240034729, Compound 63]: the IC50 is below 1000 nM. Turning to `COC(=O)N1CCO[C@@H](Cc2c(-c3c(F)cc(-c4nc(C5(C#N)CC5)c[nH]4)cc3F)nc3cc(C)ccn23)C1` [US20240034729, Compound 144], the concentration for half-maximal inhibition (IC50) was below 100 nM. Consider `COC(=O)N1CCO[C@@H](Cc2c(-c3c(F)cc(-c4ccc(O)cn4)cc3F)nc3cc(C)ccn23)C1` [US20240034729, Compound 147], for which the IC50 is below 100 nM.

`COC(=O)N1CCO[C@@H](Cc2c(-c3c(F)cc(-c4ncccn4)cc3F)nc3cc(C)ccn23)C1` [US20240034729, Compound 18] came in with a half-maximal inhibitory concentration (IC50) below 1000 nM. Next, `CCC(=O)c1ccn(-c2cc(F)c(-c3nc4cc(C)ccn4c3C[C@H]3CN(C(=O)OC)CCO3)c(F)c2)n1` [US20240034729, Compound 164]: below 100 nM; `COC(=O)N1CCO[C@@H](Cc2c(-c3c(F)cc(-n4cnnn4)cc3F)nc3cc(C)ccn23)C1` [US20240034729, Compound 58]: below 10 nM; `COC(=O)N1CCO[C@@H](Cc2c(-c3c(F)cc(-c4nc(C5(C(=O)O)CC5)c[nH]4)cc3F)nc3cc(C)ccn23)C1` [US20240034729, Compound 59]: below 10 nM. The molecule `COC(=O)N1CCO[C@@H](Cc2c(-c3c(F)cc(NC4CCC(=O)C4)cc3F)nc3cc(C)ccn23)C1` (some centres undefined) [US20240034729, Compound 79] gave a half-inhibitory concentration (IC50) below 100 nM.

Regarding `COC(=O)N1CCO[C@@H](Cc2c(-c3c(F)cc(NC(=O)/C=C/C(N)=O)cc3F)nc3cc(C)ccn23)C1` [US20240034729, Compound 29], the half-maximal inhibitory concentration (IC50) was below 10 nM. To `COC(=O)N1CCO[C@@H](Cc2c(-c3c(F)cc(NC(=O)C4(C(=O)OC)CC4)cc3F)nc3cc(C)ccn23)C1` [US20240034729, Compound 97] belongs below 1000 nM; to `COC(=O)N1CCO[C@@H](Cc2c(-c3c(F)cc(-c4nc(C5(C(N)=O)CC5)c[nH]4)cc3F)nc3cc(C)ccn23)C1` [US20240034729, Compound 133], below 100 nM; to `COC(=O)N1CCO[C@@H](Cc2c(-c3c(F)cc(N4CC=CC4=O)cc3F)nc3cc(C)ccn23)C1` [US20240034729, Compound 169], below 10 nM. To `COC(=O)N1CCO[C@@H](Cc2c(-c3c(F)cc(NC(=O)C4(C#N)CC4)cc3F)nc3cc(C)ccn23)C1` [US20240034729, Compound 89] belongs below 100 nM; to `COC(=O)N1CCO[C@@H](Cc2c(-c3c(F)cc(-c4nn[nH]n4)cc3F)nc3cc(C)ccn23)C1` [US20240034729, Compound 104], below 1000 nM.

On to `COC(=O)N1CCO[C@@H](Cc2c(-c3c(F)cc(-c4nc(C(C)(C)O)co4)cc3F)nc3cc(C)ccn23)C1` [US20240034729, Compound 119], for which the IC50 is below 100 nM. Next, `COC(=O)N1CCO[C@@H](Cc2c(-c3c(F)cc(-c4ccc(C(N)=O)cn4)cc3F)nc3cc(C)ccn23)C1` [US20240034729, Compound 146]: below 1000 nM. Turning to `CCC(=O)N1CCO[C@@H](Cc2c(-c3c(F)cc(-c4ncc[nH]4)cc3F)nc3cc(C)ccn23)C1` [US20240034729, Compound 52], the 50% inhibitory concentration (IC50) is below 10 nM. `COC(=O)N1CCO[C@@H](Cc2c(-c3c(F)cc(-n4cnc(C(N)=O)c4)cc3F)nc3cc(C)ccn23)C1` [US20240034729, Compound 110] returned a half-maximal inhibitory concentration (IC50) below 100 nM.
